test system: venous thrombosis; test: venous thrombosis test in rats (venous stasis with hypercoagulation, Wessler technique, factor Xa), oral administration; type: in vivo; conditions: dose 6 mg/kg, thrombosis induced 2 h after administration, male Wistar rats
Procedure: The antithrombotic activity of the compounds according to the invention was studied in vivo in rats by virtue of a test that reproduces a venous thrombosis. The venous thrombosis was induced according to the protocol described in Thromb. Haemost. 1992, 67 (1), 176-179. The activity by oral administration was studied according to the following operating protocol: The experiment is carried out on male Wistar rats, not fasting, weighing 250 to 280 g and divided up into groups, each of 8 to 10 animals. The test products are administered orally (by tube) in solution or in suspension in a solution of methylcellulose (0.5% in water). The concentration of the compounds is calculated such that an amount of solution of 10 ml/kg is absorbed orally. A thrombosis is induced at a time T (between 2 hours and 8 hours) after administration of the product, and the thrombus formed is removed and weighed. In order to induce this thrombosis, a venous stasis with hypercoagulation is produced, according to the technique described by WESSLER (J. Applied Physiol. 1959, 943-946) using, as hypercoagulating agent, a solution of activated factor X (Xa), supplied by the company Biogenic (Montpellier), and having a concentration of 7.5 nKat/kg. The venous stasis is produced exactly 10 seconds after the injection of the hypercoagulating agent. The activity of the compounds tested was verified at various doses, after they were administered. The thrombosis was induced between 2 hours and 8 hours after administration of the compound.

SMILES	Activity (%): percentage inhibition of the formation of the thrombus relative to the weight of the thrombus formed in the absence of the compound [%]
Cc1cn2cccc(O[C@@H]3SC[C@@H](O)[C@H](O)[C@H]3O)c2n1 [Example 2, 2-methylimidazo[1,2-α]pyridin-8-yl 5-thio-β-D-xylopyranoside]	94
CC(=O)c1cc2cccc(O[C@@H]3SC[C@@H](O)[C@H](O)[C@H]3O)c2o1 [Example 8, 2-acetyl-7-benzofuranyl 5-thio-β-D-xylopyranoside]	91
Cc1nc2cc(O[C@@H]3SC[C@@H](O)[C@H](O)[C@H]3O)ccc2s1 [Example 12, 2-methyl-5-benzothiazolyl 5-thio-β-D-xylopyranoside]	74
O[C@@H]1[C@@H](O)[C@H](Oc2cccc3ocnc23)SC[C@H]1O [Example 16, 4-benzoxazolyl 5-thio-β-D-xylopyranoside]	80
O[C@@H]1[C@@H](O)[C@H](Oc2cccc3ccoc23)SC[C@H]1O [Example 18, 7-benzofuranyl 5-thio-β-D-xylopyranoside]	62
O[C@@H]1[C@@H](O)[C@H](Oc2cccn3ncnc23)SC[C@H]1O [Example 39, [1,2,4]triazolo[1,5-a]pyridin-8-yl 5-thio-β-D-xylopyranoside]	100
O=C(O)C(F)(F)F.O=C(O)Cc1cn2cccc(O[C@@H]3SC[C@@H](O)[C@H](O)[C@H]3O)c2n1 [Example 43, 8-[(5-thio-β-D-xylopyranosyl)oxy]-imidazo[1,2-α]pyridine-2-acetic acid, salt with trifluoroacetic acid]	53
